From patent publication EP1247803A2, “Indolinone compounds suitable for modulation of protein kinases” (Sugen, Inc., priority 1996, dated 1998)

What follows are compounds tested against T1, EGFR (Homo sapiens, UniProt P00533) (assay: EGFR ELISA assay (in vitro kinase activity, EGFR captured from A431 cell lysate)).
T1 construct: Add 7 ug A431 cell lysate per well (EGFR source); endogenous in cells; host or cells: A431
T1 sequence (P00533 25-1210): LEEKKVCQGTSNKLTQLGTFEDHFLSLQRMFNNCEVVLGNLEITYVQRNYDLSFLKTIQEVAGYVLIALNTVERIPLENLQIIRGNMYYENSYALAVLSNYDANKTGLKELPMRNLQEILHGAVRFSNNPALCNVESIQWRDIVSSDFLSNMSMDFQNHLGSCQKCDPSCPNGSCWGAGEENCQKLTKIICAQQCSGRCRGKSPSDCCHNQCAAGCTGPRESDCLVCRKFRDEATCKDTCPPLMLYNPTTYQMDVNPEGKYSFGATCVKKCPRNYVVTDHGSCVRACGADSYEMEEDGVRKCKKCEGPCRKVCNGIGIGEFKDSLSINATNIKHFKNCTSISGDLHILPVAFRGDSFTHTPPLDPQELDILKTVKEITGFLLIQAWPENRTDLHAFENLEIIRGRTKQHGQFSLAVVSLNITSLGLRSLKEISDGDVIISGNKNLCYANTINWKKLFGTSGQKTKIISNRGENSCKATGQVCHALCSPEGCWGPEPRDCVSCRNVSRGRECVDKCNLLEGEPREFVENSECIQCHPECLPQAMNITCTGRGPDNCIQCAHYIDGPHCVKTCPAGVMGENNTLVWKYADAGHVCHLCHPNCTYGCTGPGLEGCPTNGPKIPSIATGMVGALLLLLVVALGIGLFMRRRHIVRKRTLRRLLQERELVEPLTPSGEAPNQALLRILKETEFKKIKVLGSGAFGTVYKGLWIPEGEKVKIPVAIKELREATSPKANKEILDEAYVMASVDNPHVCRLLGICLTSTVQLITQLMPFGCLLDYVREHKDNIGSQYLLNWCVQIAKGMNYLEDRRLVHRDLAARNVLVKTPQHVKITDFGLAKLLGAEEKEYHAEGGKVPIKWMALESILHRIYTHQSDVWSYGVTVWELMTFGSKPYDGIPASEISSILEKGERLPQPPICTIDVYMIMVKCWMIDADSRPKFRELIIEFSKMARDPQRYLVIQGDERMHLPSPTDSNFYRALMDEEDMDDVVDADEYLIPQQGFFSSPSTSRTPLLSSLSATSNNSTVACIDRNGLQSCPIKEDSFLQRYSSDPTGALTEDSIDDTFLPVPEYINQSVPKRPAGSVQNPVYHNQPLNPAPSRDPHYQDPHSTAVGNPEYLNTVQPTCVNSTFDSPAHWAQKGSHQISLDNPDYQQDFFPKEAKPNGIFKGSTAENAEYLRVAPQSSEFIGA
Type: biochemical
Design: concentration or dose not given beside the values
Method in brief: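 EGFR from A431 lysate was captured on anti-EGFR antibody-coated plates and preincubated with compounds for 30 min. Autophosphorylation ran 5 min with 3 uM ATP and 5 mM MnCl2 (final), stopped with 20 mM EDTA. Phosphotyrosine was detected by anti-pTyr ELISA with ABTS/H2O2, read at 410 nm.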
With CN(C)c1ccc(C=C2C(=O)Nc3ccc(I)cc32)cc1 [10719/B08] the “Biochem EGFR %Inhibition” value was 42.3%.
For O=C1Nc2ccc(S(=O)(=O)N3CCOCC3)cc2C1=Cc1cccc(F)c1O [10734/F08], the “Biochem EGFR %Inhibition” value was -23.6%.
O=C1Nc2ccc(S(=O)(=O)N3CCOCC3)cc2C1=Cc1ccc(O)c(Br)c1 [10734/F09] was tested, and the “Biochem EGFR %Inhibition” value was 3.1%.
In the case of O=C1Nc2ccc(I)cc2C1=Cc1ccc(O)cc1 [10719/B07], the “Biochem EGFR %Inhibition” value is reported as 23.7%.
In the case of O=C1Nc2ccc(CCCl)cc2C1=Cc1ccc([N+](=O)[O-])cc1 [10734/G06], the “Biochem EGFR %Inhibition” value is reported as 12.5%.
In the case of O=C1Nc2ccc(CCCl)cc2C1=Cc1ccc(O)c(Br)c1 [10734/G09], the “Biochem EGFR %Inhibition” value is reported as 21.4%.
With COC(=O)c1[nH]c(C)c(C=C2C(=O)Nc3ccc(S(=O)(=O)N4CCOCC4)cc32)c1C(=O)OC [10718/F07] the “Biochem EGFR %Inhibition” value was -6.3%.
O=C1Nc2ccc(CCCl)cc2C1=Cc1cccc(F)c1O [10734/G08] was tested, and the “Biochem EGFR %Inhibition” value was 33.7%.
With O=C1Nc2c(Br)cc(Br)cc2C1=Cc1ccc(O)cc1 [10719/A07] the “Biochem EGFR %Inhibition” value was 15.5%.
With COc1cc(OC)c(C=C2C(=O)Nc3c(Br)cc(Br)cc32)c(OC)c1 [10719/A06] the “Biochem EGFR %Inhibition” value was 18.2%.
With O=C1Nc2ccc(CCCl)cc2C1=Cc1ccc(Cl)c([N+](=O)[O-])c1 [10718/G08] the “Biochem EGFR %Inhibition” value was -8.3%.
In the case of CCOc1ccc(C=C2C(=O)Nc3ccc(I)cc32)cc1OC [10719/B02], the “Biochem EGFR %Inhibition” value is reported as 29.0%.
With CCc1c(C)[nH]c(C=C2C(=O)Nc3ccc(I)cc32)c1C [10719/B05] the “Biochem EGFR %Inhibition” value was 35.9%.
With O=C1Nc2ccc(I)cc2C1=Cc1c[nH]c2ccccc12 [10717/B06] the “Biochem EGFR %Inhibition” value was -30.8%.
In the case of CCOC(=O)c1c(C)[nH]c(C=C2C(=O)Nc3ccc(CCCl)cc32)c1C [10718/G02], the “Biochem EGFR %Inhibition” value is reported as 49.2%.
COc1cc(Br)c(O)c(C=C2C(=O)Nc3ccc(CCCl)cc32)c1 [10718/G03] was tested, and the “Biochem EGFR %Inhibition” value was 57.3%.
O=C1Nc2ccc(S(=O)(=O)Nc3ccc(C(F)(F)F)cc3)cc2C1=Cc1ccc([N+](=O)[O-])cc1 [10734/E06] was tested, and the “Biochem EGFR %Inhibition” value was 6.3%.
O=C1Nc2ccc(I)cc2C1=Cc1ccc(F)cc1Cl [10719/B09] was tested, and the “Biochem EGFR %Inhibition” value was -17.7%.
For O=C1Nc2ccc(S(=O)(=O)N3CCOCC3)cc2C1=Cc1ccc(Cl)c([N+](=O)[O-])c1 [10718/F08], the “Biochem EGFR %Inhibition” value was -8.7%.
With CC(C)(C)c1ccc(C=C2C(=O)Nc3ccc(S(=O)(=O)N4CCOCC4)cc32)cc1 [10734/F10] the “Biochem EGFR %Inhibition” value was -8.3%.
For O=C1Nc2ccc(I)cc2C1=Cc1ccc(F)cc1C(F)(F)F [10719/B11], the “Biochem EGFR %Inhibition” value was -23.9%.
With CCc1c(C)[nH]c(C=C2C(=O)Nc3c(Br)cc(Br)cc32)c1C [10719/A05] the “Biochem EGFR %Inhibition” value was 23.1%.
O=C1Nc2ccc(I)cc2C1=Cc1ccc(O)c(O)c1 [10719/B03] was tested, and the “Biochem EGFR %Inhibition” value was 59.5%.
In the case of COc1cc(OC)c(C=C2C(=O)Nc3ccc(I)cc32)c(OC)c1 [10719/B06], the “Biochem EGFR %Inhibition” value is reported as -0.5%.
With O=C1Nc2ccc(CCCl)cc2C1=Cc1ccc2ccccc2c1O [10718/G04] the “Biochem EGFR %Inhibition” value was 15.8%.
In the case of CCOC(=O)c1cc(C=C2C(=O)Nc3ccc(CCCl)cc32)oc1C [10718/G06], the “Biochem EGFR %Inhibition” value is reported as -18.7%.
O=C1Nc2ccc(S(=O)(=O)N3CCOCC3)cc2C1=Cc1ccc([N+](=O)[O-])cc1 [10734/F06] was tested, and the “Biochem EGFR %Inhibition” value was -17.1%.
O=C1Nc2c(Br)cc(Br)cc2C1=Cc1ccc(F)cc1C(F)(F)F [10719/A11] was tested, and the “Biochem EGFR %Inhibition” value was 10.5%.
For Cn1cccc1C=C1C(=O)Nc2ccc(I)cc21 [10717/B04], the “Biochem EGFR %Inhibition” value was 10.3%.
With CC(C)(C)c1ccc(C=C2C(=O)Nc3ccc(CCCl)cc32)cc1 [10734/G10] the “Biochem EGFR %Inhibition” value was 3.8%.
O=C1Nc2ccc(S(=O)(=O)N3CCOCC3)cc2C1=Cc1ccco1 [10718/F10] was tested, and the “Biochem EGFR %Inhibition” value was -12.0%.
With COC(=O)c1[nH]c(C)c(C=C2C(=O)Nc3ccc(CCCl)cc32)c1C(=O)OC [10718/G07] the “Biochem EGFR %Inhibition” value was -21.3%.
CCOC(=O)c1c(C)[nH]c(C=C2C(=O)Nc3ccc(S(=O)(=O)N4CCOCC4)cc32)c1C [10718/F02] was tested, and the “Biochem EGFR %Inhibition” value was 17.8%.
In the case of CCN(CC)c1ccc(C=C2C(=O)Nc3ccc(CCCl)cc32)c(O)c1 [10734/G05], the “Biochem EGFR %Inhibition” value is reported as -0.3%.
For O=C1Nc2ccc(CCCl)cc2C1=Cc1ccco1 [10718/G10], the “Biochem EGFR %Inhibition” value was -7.5%.
With O=C1Nc2ccc(S(=O)(=O)Nc3ccc(C(F)(F)F)cc3)cc2C1=Cc1ccc(O)c(Br)c1 [10734/E09] the “Biochem EGFR %Inhibition” value was 73.0%.
With O=C1Nc2ccc(CCCl)cc2C1=Cc1cc(Br)cc(Br)c1O [10734/G07] the “Biochem EGFR %Inhibition” value was 51.1%.
For CCc1c(C)[nH]c(C=C2C(=O)Nc3ccc(Br)c(C)c32)c1C [10719/C05], the “Biochem EGFR %Inhibition” value was 27.4%.
O=C1Nc2ccc(S(=O)(=O)N3CCOCC3)cc2C1=Cc1cc(Cl)ccc1O [10734/F04] was tested, and the “Biochem EGFR %Inhibition” value was 3.9%.
In the case of Cc1c(Br)ccc2c1C(=Cc1ccc(F)cc1Cl)C(=O)N2 [10719/C09], the “Biochem EGFR %Inhibition” value is reported as -0.1%.
For COc1ccc(C=C2C(=O)Nc3ccc(I)cc32)c(OC)c1 [10719/B04], the “Biochem EGFR %Inhibition” value was 29.9%.
Cc1c(O)ccc(C=C2C(=O)Nc3ccc(CCCl)cc32)c1O [10718/G09] was tested, and the “Biochem EGFR %Inhibition” value was -15.4%.
For COc1ccc(C=C2C(=O)Nc3ccc(Br)c(C)c32)c(OC)c1 [10719/C04], the “Biochem EGFR %Inhibition” value was 14.4%.
O=C1Nc2ccc(S(=O)(=O)Nc3ccc(C(F)(F)F)cc3)cc2C1=Cc1cc(Cl)ccc1O [10734/E04] was tested, and the “Biochem EGFR %Inhibition” value was -7.8%.
O=C1Nc2ccc(S(=O)(=O)Nc3ccc(C(F)(F)F)cc3)cc2C1=Cc1ccc(Br)s1 [10734/E11] was tested, and the “Biochem EGFR %Inhibition” value was -8.0%.
For O=C1Nc2ccc(I)cc2C1=Cc1cccc([N+](=O)[O-])c1 [10719/B10], the “Biochem EGFR %Inhibition” value was -1.2%.
With O=C1Nc2ccc(S(=O)(=O)N3CCOCC3)cc2C1=Cc1ccc([N+](=O)[O-])o1 [10718/F11] the “Biochem EGFR %Inhibition” value was -3.9%.
With CCOc1ccccc1C=C1C(=O)Nc2ccc(I)cc21 [10717/B02] the “Biochem EGFR %Inhibition” value was 31.7%.
CCOc1cccc(C=C2C(=O)Nc3ccc(S(=O)(=O)N4CCOCC4)cc32)c1O [10734/F02] was tested, and the “Biochem EGFR %Inhibition” value was 0.7%.
With CCOC(=O)CCc1c(C(=O)OCC)[nH]c(C=C2C(=O)Nc3ccc(CCCl)cc32)c1CC(=O)OCC [10718/G05] the “Biochem EGFR %Inhibition” value was 2.8%.
In the case of Cc1c(Br)ccc2c1C(=Cc1ccc(O)c(O)c1)C(=O)N2 [10719/C03], the “Biochem EGFR %Inhibition” value is reported as 60.6%.
For CCOC(=O)c1cc(C=C2C(=O)Nc3ccc(S(=O)(=O)N4CCOCC4)cc32)oc1C [10718/F06], the “Biochem EGFR %Inhibition” value was -9.1%.
For CN(C)c1ccc(C=C2C(=O)Nc3c(Br)cc(Br)cc32)cc1 [10719/A08], the “Biochem EGFR %Inhibition” value was 47.3%.
In the case of CCOc1ccc(C=C2C(=O)Nc3ccc(Br)c(C)c32)cc1OC [10719/C02], the “Biochem EGFR %Inhibition” value is reported as 10.2%.
